Laboratory results as given in ChEMBL document CHEMBL5120768, “Discovery of Anticancer Agents of Diverse Natural Origin” (J Nat Prod, 2022).
One block for each compound: values may come before it.

Experiments:
[1] = Antiproliferative activity against human CCD-112CoN cells after 72 hrs by SRB assay; type: functional, cell-based
A2780 [2] = assay: Antiproliferative activity against human A2780 cells by SRB assay; type: functional, cell-based
MCF7 [3] = assay: Antiproliferative activity against human MCF7 cells by SRB assay; type: functional, cell-based
MDA-MB-435 [4] = assay: Antiproliferative activity against human MDA-MB-435 cells after 72 hrs by CellTiter 96 AQueous One Solution Cell Proliferation assay; type: functional, cell-based; conditions: MDA-MB-435, 72 h
HT-29 [5] = assay: Antiproliferative activity against human HT-29 cells after 72 hrs by CellTiter 96 AQueous One Solution Cell Proliferation assay; type: functional, cell-based; conditions: HT-29, 72 h
OVCAR-3 = assay: Antiproliferative activity against human OVCAR-3 cells after 72 hrs by CellTiter 96 AQueous One Solution Cell Proliferation assay; type: functional, cell-based; conditions: OVCAR-3, 72 h
HT-29 [6] = assay: Antiproliferative activity against human HT-29 cells after 3 days by SRB assay; type: functional, cell-based; conditions: HT-29, 72 h
[7] = Antiproliferative activity against human PC-3 cells after 3 days by SRB assay; type: functional, cell-based
MDA-MB-435 [8] = assay: Antiproliferative activity against human MDA-MB-435 cells; type: functional, cell-based
MDA-MB-231 [9] = assay: Antiproliferative activity against human MDA-MB-231 cells; type: functional, cell-based
MDA-MB-231 [10] = assay: Antiproliferative activity against human MDA-MB-231 cells after 72 hrs by CellTiter 96 AQueous One Solution Cell Proliferation assay; type: functional, cell-based; conditions: MDA-MB-231, 72 h
20S proteasome = assay: Inhibition of chymotrypsin-like activity of human erythrocytes 20S proteasome using Suc-LLVY-AMC as substrate and measured by fluorescence assay
A2780 [11] = assay: Antiproliferative activity against human A2780 cells; type: functional, cell-based
MCF7 [12] = assay: Antiproliferative activity against human MCF7 cells; type: functional, cell-based

Structure (SMILES): C[C@H]1O[C@@H](O[C@H]2CC[C@]3(C)[C@H]4CC[C@]5(C)[C@@H](C6=CC(=O)OC6)CC[C@]5(O)[C@@H]4CC[C@]3(O)C2)C[C@H](O)[C@@H]1O[C@@H]1O[C@H](CO)[C@@H](O)[C@H](O)[C@H]1O
IC50 [1]: 2700 nM

Structure (SMILES): COc1cc(=O)oc(/C=C/C=C/C=C/C(C)=C/[C@]2(C)O[C@H](C)[C@](C)(O)[C@@H]2O)c1C
IC50 (A2780 [2]): 8200 nM
IC50 (MCF7 [3]): 6000 nM

Structure (SMILES): CO[C@H]1[C@H](O[C@H]2CC[C@]3(C=O)[C@H]4CC[C@]5(C)[C@](O)(C6=CC(=O)OC6)CC[C@]5(O)[C@@H]4CC[C@]3(O)C2)O[C@H](C)[C@H](O)[C@@H]1OC
IC50 (MDA-MB-435 [4]): > 10000 nM
IC50 (HT-29 [5]): > 10000 nM
IC50 (OVCAR-3): > 10000 nM

IC50 (HT-29 [6]): > 10000 nM
Structure (SMILES): COc1ccc([C@@]23Oc4cc5c(c(OC)c4[C@]2(O)[C@H](O)[C@H](C(N)=O)[C@H]3c2ccccc2)[C@H]2OC[C@H]([C@H](O)CO)O[C@H]2O5)cc1
IC50 [7]: > 10000 nM

IC50 (MDA-MB-435 [8]): 600 nM
IC50 (MDA-MB-231 [9]): 600 nM
Structure (SMILES): CCCC[C@H]1CCCC[C@H](C)Cc2cc(O)c(c(O)c2)[C@@H](CCCC)CCCC[C@H](C)[C@@H](O[C@@H]2OC[C@@H](O)[C@@H](O)[C@H]2O)c2cc(O)c1c(O)c2

Structure (SMILES): COc1ccc([C@@]23Oc4cc(OC)cc(OC)c4[C@]2(O)[C@H](O)[C@H](C(N)=O)[C@H]3c2ccccc2)cc1 [DIDESMETHYLROCAGLAMIDE]
IC50 (HT-29 [6]): 21 nM

IC50 (MDA-MB-231 [10]): 1000 nM
Structure (SMILES): CCC[C@H]1CCCCC[C@@H](C)c2cc(O)c(c(O)c2)[C@@H](CCCCO)CCCCC[C@@H](C)c2cc(O)c1c(O)c2

IC50 (MDA-MB-231 [10]): 1000 nM
Structure (SMILES): CCCC[C@H]1CCCCC[C@@H](C)c2cc(O)c(c(O)c2)[C@@H](CCC)CCCCC[C@@H](C)c2cc(O)c1c(O)c2

IC50 (MDA-MB-231 [10]): 1000 nM
Structure (SMILES): C[C@@H]1CCCCC[C@H](CCCCO)c2c(O)cc(cc2O)[C@H](C)CCCCC[C@H](CCCO)c2c(O)cc1cc2O

IC50 (MDA-MB-435 [8]): 600 nM
IC50 (MDA-MB-231 [9]): 600 nM
Structure (SMILES): CCCC[C@H]1CCCC[C@H](C)[C@@H](O)c2cc(O)c(c(O)c2)[C@@H](CCCC)CCCC[C@H](C)[C@@H](O[C@@H]2OC[C@@H](O)[C@@H](O)[C@H]2O)c2cc(O)c1c(O)c2

IC50 (20S proteasome): 96 nM
Structure (SMILES): CC[C@H](C)[C@@H]1NC(=O)[C@@H](CCC(N)=O)NC(=O)CNC(=O)[C@H](Cc2ccc(O)cc2)/N=C\[C@H](CC(C)C)NC(=O)[C@H](C(C)C)NC(=O)[C@H](CO)NC1=O

IC50 (MDA-MB-435 [8]): > 25000 nM
IC50 (MDA-MB-231 [9]): > 25000 nM
Structure (SMILES): CCCCC(Cl)CCCC[C@H](C)[C@@H](O[C@@H]1OC[C@@H](O)[C@@H](O)[C@H]1O)c1cc(O)c([C@@H](CCCC)CCCC[C@H](O)[C@@H](OC(C)=O)c2cc(O)cc(O)c2)c(O)c1 (stereo partly drawn)

IC50 (A2780 [11]): 3800 nM
IC50 (MCF7 [12]): 6800 nM
Structure (SMILES): CC(=O)C1=C(O)C=C2Oc3c(C(C)=O)c(O)c(C)c(O)c3C2(C)C1=O (stereo not drawn)

IC50 (MDA-MB-435 [8]): 600 nM
IC50 (MDA-MB-231 [9]): 600 nM
Structure (SMILES): CCCC[C@H]1CCCC[C@H](C)[C@@H](O[C@H]2OC[C@@H](O)[C@@H](O)[C@H]2O)c2cc(O)c(c(O)c2)[C@@H](CCCC)CCCC[C@H](C)[C@@H](O[C@@H]2OC[C@@H](O)[C@@H](O)[C@H]2O)c2cc(O)c1c(O)c2
